Data taken from patent US8247211B2, “Glycopeptide antibiotics” (American Cyanamid Company, priority 2001, dated 2012).
Converted amounts (≈) assume the structure as drawn.

Key:
Experiment in all cases: In vitro antibacterial evaluation: minimum inhibitory concentration (MIC), broth dilution method
Type in all cases: cell-based
[1] = system: Escherichia coli; conditions: for MIC Escherichia coli (GC 4559): strain GC 4559; for MIC Escherichia coli (GC 4560): strain GC 4560
Experimental: (§1) The minimum inhibitory concentration (MIC), the lowest concentration of the antibiotic which inhibits growth of the test organism, is determined by the broth dilution method using Muller-Hinton II […] (Baltimore Biological Laboratories) following the recommendations of the National Committee for Clinical Laboratory Standards [Methods for dilution antimicrobial susceptibility tests for bacteria that grow aerobically, approved standard M7-A2, National Committee for Clinical Laboratory Standards, Villanova, Pa].
(§2) An inoculum level of 5×10^5 CFU/mL, and a range of antibiotic concentrations (64-0.06 μg/mL) is used. […] The test organisms include a spectrum of Gram-positive bacteria comprised of Staphylococcus sp., Streptococcus sp. and Enterococcus sp. These organisms include recent clinical isolates that are resistant to methicillin, penicillin and/or vancomycin.

[2] = system: Enterococcus sp.; conditions: for MIC Enterococcus faecalis (ATCC 29212): strain ATCC 29212; for MIC Enterococcus faecalis (GC 4552): strain GC 4552
Experimental: as §1, §2

[3] = system: Staphylococcus sp.; conditions: for MIC Staphylococcus aureus (ATCC 29213) / MIC Staphylococcus aureus (GC 1131) / MIC Staphylococcus aureus (GC 4535) / MIC Staphylococcus aureus SMITH (GC 4536) / MIC Staphylococcus aureus-SMITH (GC 4536): broth dilution, 18 hours at 35° C.; for MIC Coagulase Negative Staphylococcus (GC 4537): strain GC 4537; for MIC Coagulase Negative Staphylococcus (GC 4538): strain GC 4538; for MIC Coagulase Negative Staphylococcus (GC 4547): strain GC 4547; for MIC Staphylococcus aureus-SMITH (GC 4536): strain SMITH GC 4536
Experimental: as §1, §2

[4] = Enterococcus faecalis (GC 2242), broth dilution, 18 hours at 35° C.

MIC Escherichia coli (GC 4559) [1] [µg/mL] | MIC Escherichia coli (GC 4560) [1] [µg/mL] | MIC Enterococcus faecalis (GC 2242) [2, 4] [µg/mL] | MIC Enterococcus faecalis (ATCC 29212) [2] [µg/mL] | MIC Enterococcus faecalis (GC 2242) ([2]; strain GC 2242) [µg/mL] | MIC Enterococcus faecalis (GC 4552) [2] [µg/mL] | MIC Staphylococcus aureus (ATCC 29213) [3] [µg/mL] | MIC Staphylococcus aureus (GC 1131) [3] [µg/mL] | MIC Staphylococcus aureus (GC 4535) [3] [µg/mL] | MIC Staphylococcus aureus SMITH (GC 4536) [3] [µg/mL] | MIC Coagulase Negative Staphylococcus (GC 4537) [3] [µg/mL] | MIC Coagulase Negative Staphylococcus (GC 4538) [3] [µg/mL] | MIC Coagulase Negative Staphylococcus (GC 4547) [3] [µg/mL] | MIC Staphylococcus aureus-SMITH (GC 4536) [3] [µg/mL] | SMILES
>64 | 8 (≈ 5.74 µM) | >64 | >64 | >64 | >64 | >64 | >64 | >64 | >64 | >64 | >64 | >64 | >64 | CCCCCC(=O)OCC1OC(N2C(=N)NCC2C(O)C2NC(=O)C(C(O)C3CNC(=N)N3)NC(=O)C(Cc3ccc(OC4OC(CO)C(OC5OC(CO)C(O)C(O)C5O)C(O)C4O)cc3)NC(=O)C(C(C)c3ccccc3)NC(=O)CNC(=O)C(CO)NC2=O)C(O)C(O)C1O (stereo not shown) [Example 95]
>64 | 2 (≈ 1.44 µM) | 16 (≈ 11.5 µM) | 32 (≈ 23 µM) | 16 (≈ 11.5 µM) | 32 (≈ 23 µM) | 4 (≈ 2.87 µM) | 4 (≈ 2.87 µM) | 8 (≈ 5.74 µM) | 4 (≈ 2.87 µM) | 8 (≈ 5.74 µM) | 4 (≈ 2.87 µM) | 4 (≈ 2.87 µM) | 4 (≈ 2.87 µM) | CCCCCC(=O)OCC1OC(Oc2ccc(CC3NC(=O)C(C(C)c4ccccc4)NC(=O)CNC(=O)C(CO)NC(=O)C(C(O)C4CNC(=N)N4C4OC(CO)C(O)C(O)C4O)NC(=O)C(C(O)C4CNC(=N)N4)NC3=O)cc2)C(O)C(O)C1OC1OC(CO)C(O)C(O)C1O (stereo not drawn) [Example 95a, Cyclo[glycyl-β-methylphenylalanyl-O-(6-O-hexanoyl-4-O-hexopyranosylhexopyranosyl)-tyrosyl-3-(2-iminoimidazolidin-4-yl)seryl-3-(3-hexopyranosyl-2-iminoimidazolidin-4-yl)-serylseryl]]
